From US10045951B2, “Flaxseed lignan complex and its use thereof” (priority 2007, dated 2018)
Where a SMILES comes first, the peptide text is derived from it. The star is where a group is joined. Cbz = O=C(OCc1ccccc1)*

Key:
[1] = Lignan content in murine plasma (LC/MS/MS); type: in vivo, mice; details: oral, 10 % FS (flaxseed) in diet, FS-fed (10% FS) mouse groups, 4 months post-irradiation, read-out: circulating plasma level
Experimental: Circulating plasma levels of the flaxseed lignans ED and EL at time of sacrifice (4 months' post-XRT) were determined by liquid chromatography tandem mass spectrometry (LC/MS/MS) using commercially available standards in 95% purity (Chromadex, Inc., Santa Ana, Calif.) shown in FIG. 39. Plasma flaxseed lignan levels were evaluated in 3 randomly selected mice per group (irradiated mice; diet initiated at −3, 0, +2, +4, +6 weeks of radiation exposure).
Detection of flaxseed metabolites in the circulation using analytical methods was used to confirm that mice were feeding on the flaxseed-supplemented diet to reach physiologically relevant levels. Mice were maintained on control (0% FS) or treatment (10% FS) diets given ad libitum for either three weeks prior to XRT and for the entire duration of the experiment (4 months), or started on the day of XRT or 2,4,6 weeks post XRT and continued for 4 months (see scheme on FIG. 38). Plasma evaluation for lignan detection was done at 16 weeks post XRT.

ROS generation in PMVEC = assay: ROS generation (H2DCF) by PMVEC in simulated I/R flow chamber; type: cell-based, mouse; details: 5 μM for 5 h prior to I/R
Experimental: Mouse pulmonary endothelial cells (PMVEC) were grown on coverslips and placed in a Warner chamber and perfused with culture medium for 24 h at a flow rate of 10 dyn/cm^2. Cells were incubated with the Lignan ED (5 μM) for 5 h prior to I/R loaded with H2DCF to monitor ROS immediately before the experiment. I/R in this chamber is simulated by abrupt cessation of perfusate flow and its reinstatement through the chamber 5 minutes later. The images are in pseudocolor with intensity shown on the side bar.

LLC = assay: MTS cell proliferation assay with FS lignans: LLC; type: cell-based; details: 10 μM for 16 hours
Experimental: (§1) FIG. 37: FS lignans EL and ED, and their precursor SDG, inhibit cell proliferation in tumor cell lines. Tumor cell lines (LKR, TC-1, and LLC) were incubated with 10 μM or 25 μM of SDG, EL, or ED for 16 hours and processed for MTS assay to measure cell proliferation. The % inhibition of cell growth compared to untreated (no lignan) cell lines was calculated. Bars represent means±SEM. n=3 readings per group.
(§2) Cell proliferation was assessed at this time (time 0), and 24 and 48 hours later.

HO-1 = HO-1 immunoblotting in pulmonary microvascular endothelial cells (PMVEC); type: cell-based, mouse; details: 10 μM; 1,2,4,6,8 and 10 hours
Experimental: For mechanistic studies, there is a need to establish whether purified lignans (in appropriate, “pharmacologically achievable” concentrations) have similar effects in cell culture as lignan complex diets have in animals. HO-1 levels were thus evaluated by immunoblotting in primary cultures of pulmonary microvascular endothelial cells (PMVEC) isolated from mouse lungs. PMVEC were incubated with the lignan enterodiole (ED) in micromolar concentrations (10 µM) similar to that seen in mouse plasma levels. Cells were incubated with ED for 1,2,4,6,8 and 10 hours.

LKR = assay: MTS cell proliferation assay with FS lignans: LKR; type: cell-based; details: 10 μM for 16 hours
Experimental: as §1, §2

[2] = system: alveolar epithelial cells (A549); assay: H2O2-induced cell death of alveolar epithelial cells (LDH release); type: cell-based; details: 10, 50, 100, 200, 500 uM; 10 mM H2O2 for 1-6 hours
Experimental: In addition, using the same assay system to detect cell death, LDH release, an evaluation of the efficacy of the lignan enterodiole, ED, to protect alveolar epithelial cells (A549) from oxidant-induced cell death was made. In these experiments, cells were pre-incubated withincreasing concentrations of ED (10, 50, 100, 200, 500 uM) and challenged with hydrogen peroxide (10 mM H2O2) for 1-6 hours. […] (FIG. 20).

proteasomal activity = assay: Proteasomal inhibition in GFPu-1 cells (anti-GFP immunoblotting); type: cell-based, human; details: for amount of proteasomal inhibition as compared to Lactacystin and MG 132 / proteasomal inhibition compared to untreated cells (GFP expression): 16 hours; for proteasomal inhibition compared to untreated cells (GFP expression): EL 1 μM to 100 μM
Experimental: FIG. 36: Proteasomal inhibition with EL and ED as compared to known pharmacologic inhibitors Lactacystin and MG 132. GFPu-1 kidney epithelial cells were treated for 16 hours with EL and ED at differing concentrations. Proteasomal inhibition was detected by Western blotting using anti-GFP antibody with increased proteasomal inhibition expressed as accumulation of GFP. Representative Western blots are shown with β actin reference (Top panels). Densitometry was performed with β actin normalization, expressed as fold over untreated control±SEM, n=2-6 (Bottom panel). Dotted line represents control expression of GFP. *p<0.005 vs. untreated, **p<0.01 vs. untreated.
GFP^u-1 cells were used to investigate the impact of one of the flaxseed lignans, enterodiole (ED) on proteasomal activity. GFP^u-1 is an human kidney epithelial (HEK)-derived, stably transfected cell line expressing a short degron (CL1) tagged to green fluorescent protein (GFP) as described […].
Using an in vitro means of quantifying proteasomal inhibition with GFPu-1 cells, differing concentrations of the FS lignans EL and ED were compared with known pharmacologic proteasomal inhibitors MG 132 and Lactacystin, incubated for 16 hours prior to processing. Western blotting was performed on whole […] cell lysates using anti-GFP antibodies to quantify the amount of GFP expressed as a marker of the amount of proteasomal inhibition (FIG. 36, Top panels).

TC-1 = assay: MTS cell proliferation assay with FS lignans: TC-1; type: cell-based; details: 10 μM for 16 hours
Experimental: as §1, §2

Nrf2 = assay: Nuclear Nrf2 levels in PMVEC; type: cell-based, mouse; details: 10 μM
Excerpt: Nrf2 was detected with our own rabbit polyclonal Antibody (Clone MCS-1a).

PMVEC = assay: tBHQ-induced cell death of PMVEC (LDH release); type: cell-based, mouse; details: pretreatment 50 μM; 10 μM tBHQ
Experimental: Given the in vivo data hereinabove, showing protection of lungs from oxidative injury after flaxseed feeding, a confirmation of similar protection of cells in vitro was desired. Relatively high doses of the electrophile tert-butylhydroquinone (tBHQ) were used to oxidatively stress the cells. […] However, pretreatment of cells with 50 µM of the lignan Enterolactone (EL) was sufficient to protect cells up to 50% from tert-butylhydroquinone (tBHQ)-induced cell death (FIG. 19).

[3] = system: streptozotosin-induced Diabetes mellitus; details: SDG-treated animals; cited from earlier work
LKR cells = assay: MTS cell proliferation assay with proteasomal inhibitor; type: cell-based, mouse; details: one day post incubation
Experimental: FIG. 35: Cancer cell proliferation is inhibited by a known pharmacological proteasome inhibitor. LKR cells were incubated with MG 132, a known pharmacological proteasomal inhibitor and cell proliferation was measured using the MTS assay at one day post incubation. There was a dose dependent decrease in cell proliferation with increasing doses of MG 132.
LKR cells derived from an explant of a pulmonary tumor from an activated K-rasG12D mutant mouse were incubated with differing concentrations of MG 132, a known pharmacological proteasomal inhibitor to assess for cell proliferation using the MTS assay.

Compound | concentration at 16 weeks post XRT [1] [ng/mL] | ROS generation (ROS generation in PMVEC) | cancer cell proliferation rate (MTS) (LLC) | HO-1 levels (HO-1) | cancer cell proliferation rate (MTS) (LKR) | protection from oxidant-induced cell death (LDH release) [2] | amount of proteasomal inhibition as compared to Lactacystin and MG 132 (proteasomal activity) | proteasomal inhibition compared to untreated cells (GFP expression) (proteasomal activity) | GFP levels (proteasomal inhibition) (proteasomal activity; Example 15) | cancer cell proliferation rate (MTS) (TC-1) | nuclear Nrf2 levels (Nrf2) | protection from tBHQ-induced cell death (PMVEC) | diabetes [3] | serum and pancreatic lipid peroxidation [3] | cell proliferation inhibition (MTS) (LKR cells)
OC[C@H](Cc1cccc(O)c1)[C@H](CO)Cc1cccc(O)c1 [ED, enterodiol] | 14 to 405 | near complete abrogation | significant decrease | robust, time-dependent induction | significant decrease | significantly protected | comparable to only Lactacystin, not MG 132 | significant amount of proteasomal inhibition | increased GFP levels in a dose-dependent fashion | significant decrease | time-dependent increase | – | – | – | –
O=C1OC[C@H](Cc2cccc(O)c2)[C@H]1Cc1cccc(O)c1 [EL, enterolactone] | 103 to 325 | – | significant decrease | – | significant decrease | – | no significant difference | significant increase | – | significant decrease | – | up to 50% | – | – | –
COc1cc(C[C@@H](CO[C@@H]2O[C@H](CO)[C@@H](O)[C@H](O)[C@H]2O)[C@H](CO[C@@H]2O[C@H](CO)[C@@H](O)[C@H](O)[C@H]2O)Cc2ccc(O)c(OC)c2)ccc1O [SDG, secoisolariciresinol diglucoside] | – | – | significant decrease | – | significant decrease | – | – | – | – | significant decrease | – | – | prevention of diabetes | decrease | –
CC(C)C[C@@H](C=O)NC(=O)[C@H](CC(C)C)NC(=O)[C@H](CC(C)C)NC(=O)OCc1ccccc1 [MG 132] (Cbz-Leu-Leu-Leu-aldehyde) | – | – | – | – | – | – | – | – | – | – | – | – | – | – | clear dose dependent response
